Test results taken from paper PMC5766608, “Target engagement imaging of PARP inhibitors in small-cell lung cancer” (Nature Communications, 2018).
Read-outs that look alike come from different tables or passages of the source. One block for each compound: values may come before it.

Assays:
PARP1 = target: T1, PARP1 (Homo sapiens, UniProt P09874); conditions: cited from earlier work
T1 construct: purchased BPS Bioscience, San Diego, CA

PARP1/2 [1] = assay: Blocking of PARPi-FL uptake by PARP inhibitors (confocal microscopy, flow cytometry); type: cell-based, human; conditions: JHU-LX22 cells; for Blocking of PARPi-FL uptake: pretreatment with PARP inhibitor 25 min, then PARPi-FL 15 min; for Blocking of PARPi-FL uptake / target engagement, in words: pretreatment with inhibitor, then PARPi-FL
Method: (§1) Cells were then treated with fluorescent imaging agent PARPi-FL and either imaged via confocal microscopy or measured via flow cytometry. […] Then, cells were trypsinized, subjected to flow cytometry and analyzed for the relative PARPi-FL fluorescence signal. […] Error bars represent the SD of three independent experiments with three parallels each
We conducted confocal laser scanning microscopy to visualize the extent of intracellular blocking of PARPi-FL uptake by different PARPi. […] PARPi-FL was removed and cells were washed in fresh medium for 10 min. Next, cells were treated with 4% Paraformaldehyde (PFA) for 8 min on ice to ensure fixation. […] PARPi-FL intensity was determined by measuring the PARPi-FL fluorescence intensity in all nuclei, which were thresholded using Hoechst staining.
(§2) After the respective treatment/staining, which is described below for the different experiments, cells were washed in PBS, trypsinized, washed with flow buffer (1% BSA (w/v) in PBS), transferred to 5 mL flow cytometry tubes through the 40 µm cell strainer cap and left on ice until measurement in the flow cytometer (Fortessa II). Raw data were processed in FlowJo software in order to calculate PARPi-FL uptake per cell. Dead cells were excluded by eliminating DAPI positive cells from the analysis (Supplementary Fig. 8). Cell clumps and debris were eliminated using the corresponding gates (forward and side scatter) for the unstained cell population. PARPi-FL fluorescence was imaged in the FITC channel against side scatter (area).
Controls (cells incubated with medium instead of a PARP inhibitor) served as reference value and their PARPi-FL signal was defined as 100%.
To quantify the extent of blocking of PARPi-FL uptake by different PARPi, we quantified the intracellular PARPi-FL uptake in JHU-LX22 cells after incubation with PARP inhibitors.

PARP1/2 [2] = assay: In vitro binding kinetics by recovery of PARPi-FL binding (flow cytometry); type: cell-based, human
Method: as §1, §2
We furthermore determined the duration of PARPi binding to their target site. […] Then, cells were subjected to flow cytometry as described above. […] We determined the duration of binding of the PARPi indirectly by calculating the recovery of PARP-FL binding with increasing times between PARPi and PARPi-FL treatment. Decay curves were calculated with Prism using two phase decay least squares regression.

JHU-LX22 cells = assay: Cytotoxicity, Alamar Blue assay; type: cell-based, human; conditions: 24-96 h
Method: […]. Cells were plated in 96-well plates (black, clear-bottom, Corning Incorporated) at a density of 5,000 cells/well and allowed them to attach for 24 h. All compounds were prepared as 10 mM stock solutions in DMSO and further diluted in media. Cells were treated with 0, 2, 5, and 10 µM (final solutions containing 1% DMSO) of each compound for 24, 48, 72 and 96 h. Then, media was removed and Alamar Blue reagent was added to each well. Plates were incubated at 37 °C for 4 h under protection from direct light. Fluorescence was read (bottom-read mode) using an excitation wavelength of 570 nm and an emission wavelength of 585 nm on a SpectraMax M5 microplate reader (Molecular Devices, Sunnyvale, CA, USA). The average reading values were analyzed by subtracting the background readings (wells with Alamar Blue but without cells) and compared against the untreated controls of each plate (defined as 100% viability) to determine the percentage of living cells. The experiment was carried out in three biological replicates with four parallels of each compound.
Supplementary Figure 9 | In vitro toxicity of the tested PARP inhibitors and imaging tracers on JHU-LX22 cells. (a) Assessment of viable cell population during flow cytometry after a 2 hour incubation time of several PARP inhibitors at concentrations between 0 and 5 µM. (b) Cell viability determination using Alamar Blue assays. Cells were incubated with 0, 0.2, 2, 5 or 10 µM of each compound for 24, 48, 72 or 96 h and cell viability was assessed using the Alamar Blue assay. (c) IC values derived from Alamar Blue assays at 72 h and 96 h.
Viability data represent means from three independent experiments, each with four parallels of each sample. Error bars represent the standard error (SEM). […]

PARylation in LX22 cells = assay: PARylation inhibition assay (western blot for PAR); type: cell-based, human; conditions: 0.1 µM, 30 min incubation
Method: Whole cell lysates were prepared by incubating cells with RIPA Buffer with Triton X (BP-140, Boston BioProducts) containing Protease Inhibitor (Complete EASYpacks, Sigma-Aldrich) for 30 min on ice, followed by 30 min centrifugation at 10,000 × g for 30 min at 4 °C. Protein concentration of lysates was determined using a Bicinchoninic acid (BCA) assay kit (#23225, Pierce) and following the manufacturers instructions. SDS gel electrophoresis and immunoblotting were carried out following standard procedures. Signal detection was carried out using chemiluminescent substrate (#34077, Thermo Scientific). Densitometric analysis of western blots was carried out using ImageJ (NIH). To detect PAR, we used a rabbit polyclonal anti-PAR polymer antibody (1:1000 dilution, #4336-BPC-100, Trevigen) followed by a goat anti-rabbit IgG-HRP secondary antibody (1:10,000 dilution, sc-2004, SantaCruz). B-actin was used as loading control (1:1000 dilution, A3854, Sigma-Aldrich) and was stained after stripping the blot for 30 min at room temperature using stripping buffer (Amresco).
Supplementary Figure 3 | PARylation inhibition assay.
PARPi-FL and [18F]PARPi quantify PARP inhibition, we compared their ability to inhibit PARylation
in comparison with olaparib.
inhibition. At 1 µM, the PAR signal for all three compounds is nearly completely eliminated.

PARP1/2 [3] = conditions: for Blocking of [18F]PARPi tumor uptake (target engagement): 30 min before tracer, PET 2 h later
Source text: Fig. 7 Variable dose blocking.
The control group received no therapeutic inhibitor.

PARP1/2 [4] = conditions: olaparib 50 mg/kg, talazoparib 0.3 mg/kg i.v., 60 min between drug and tracer
Method: (§3) All PET/CT images (n = 90) were acquired on an Inveon PET/CT (Siemens) and reconstructed scans were analyzed using the Inveon Research Workplace Software (Siemens). To acquire PET/CT images, animals were anesthetized with 2% isoflurane and positioned on the scanner bed. […] PET data were collected for 5–10 min, followed by CT.
Activity concentration was quantified by averaging the mean values taken from VOIs drawn over the entire tumor as it appeared in the CT and portrayed as a mean %ID/g ± SD.

PARP1/2 [5] = assay: Ex vivo autoradiography of target engagement; conditions: olaparib 50 mg/kg, talazoparib 0.3 mg/kg, 30 min prior to tracer; tumor collected 2 h post tracer
Source text: Sections from 3 different tumor areas from each tumor (n = 3/group) were exposed to an autoradiography plate overnight and read the next day. ImageJ was used to quantify the signal intensity of each tissue. Adjacent sections were used for PARP1 IHC and H&E staining to confirm tissue identity and PARP1 expression.

PARP2 = target: T2, PARP2 (Homo sapiens, UniProt Q9UGN5); assay: PARP2 IC50 assay (BPS Bioscience, Strep-HRP, histone substrate); type: biochemical; conditions: footnote a: see Supplementary Fig. 2
T2 construct: purchased BPS Bioscience, San Diego, CA
T2 sequence (Q9UGN5 whole entry): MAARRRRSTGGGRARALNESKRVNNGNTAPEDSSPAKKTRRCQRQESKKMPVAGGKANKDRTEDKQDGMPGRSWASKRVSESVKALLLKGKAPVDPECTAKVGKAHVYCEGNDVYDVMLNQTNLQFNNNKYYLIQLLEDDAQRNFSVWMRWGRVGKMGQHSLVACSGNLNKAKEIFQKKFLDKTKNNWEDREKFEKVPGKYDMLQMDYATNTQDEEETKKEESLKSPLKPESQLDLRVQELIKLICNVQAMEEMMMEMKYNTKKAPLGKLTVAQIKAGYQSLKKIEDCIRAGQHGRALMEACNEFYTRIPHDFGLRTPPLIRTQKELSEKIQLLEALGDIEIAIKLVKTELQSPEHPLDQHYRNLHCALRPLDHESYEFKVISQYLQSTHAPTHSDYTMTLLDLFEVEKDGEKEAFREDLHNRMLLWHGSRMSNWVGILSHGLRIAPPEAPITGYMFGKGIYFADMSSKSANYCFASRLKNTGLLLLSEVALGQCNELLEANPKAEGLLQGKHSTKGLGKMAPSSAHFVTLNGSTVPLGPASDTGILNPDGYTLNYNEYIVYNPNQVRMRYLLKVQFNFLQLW
Method: Assays were performed by BPS Bioscience, San Diego, CA. […] Data was reported by BPS a`s % enzyme activity curve from 0.03 nM or 0.1 nM to 1000 nM.

JHU-LX48 SCLC PDX [6] = assay: PET/CT imaging agent kinetics; type: in vivo, NSG mice; conditions: i.v., JHU-LX48 PDX mice
Source text: Error bars represent the SD
Different mice were used for each group to eliminate, as much as possible, the influence of anesthesia on tracer distribution.

JHU-LX48 SCLC PDX [7] = assay: PET/CT tumor size study
Method: PET/CT imaging was performed once a week over 8 consecutive weeks starting one week after xenografting. a Representative MIPs from the same mouse over 8 weeks. b Quantification (n = 6) of mean uptake (top) and max uptake (bottom) of the PET images grouped by tumor size.
as §3
This was continued for 8 consecutive weeks until mice were sacrificed to avoid surpassing a tumor size limit of 1500 mm^3. Activity concentration was quantified by averaging the mean or max values taken from VOIs drawn over the entire tumor as it appeared in the CT and portrayed as mean and max %ID/g ± SD.

[8] = JHU-LX22 cells, 0.2 µM inhibitor 25 min, washed, 0-48 h post-incubation, two phase decay fit

T1 sequence (P09874 whole entry): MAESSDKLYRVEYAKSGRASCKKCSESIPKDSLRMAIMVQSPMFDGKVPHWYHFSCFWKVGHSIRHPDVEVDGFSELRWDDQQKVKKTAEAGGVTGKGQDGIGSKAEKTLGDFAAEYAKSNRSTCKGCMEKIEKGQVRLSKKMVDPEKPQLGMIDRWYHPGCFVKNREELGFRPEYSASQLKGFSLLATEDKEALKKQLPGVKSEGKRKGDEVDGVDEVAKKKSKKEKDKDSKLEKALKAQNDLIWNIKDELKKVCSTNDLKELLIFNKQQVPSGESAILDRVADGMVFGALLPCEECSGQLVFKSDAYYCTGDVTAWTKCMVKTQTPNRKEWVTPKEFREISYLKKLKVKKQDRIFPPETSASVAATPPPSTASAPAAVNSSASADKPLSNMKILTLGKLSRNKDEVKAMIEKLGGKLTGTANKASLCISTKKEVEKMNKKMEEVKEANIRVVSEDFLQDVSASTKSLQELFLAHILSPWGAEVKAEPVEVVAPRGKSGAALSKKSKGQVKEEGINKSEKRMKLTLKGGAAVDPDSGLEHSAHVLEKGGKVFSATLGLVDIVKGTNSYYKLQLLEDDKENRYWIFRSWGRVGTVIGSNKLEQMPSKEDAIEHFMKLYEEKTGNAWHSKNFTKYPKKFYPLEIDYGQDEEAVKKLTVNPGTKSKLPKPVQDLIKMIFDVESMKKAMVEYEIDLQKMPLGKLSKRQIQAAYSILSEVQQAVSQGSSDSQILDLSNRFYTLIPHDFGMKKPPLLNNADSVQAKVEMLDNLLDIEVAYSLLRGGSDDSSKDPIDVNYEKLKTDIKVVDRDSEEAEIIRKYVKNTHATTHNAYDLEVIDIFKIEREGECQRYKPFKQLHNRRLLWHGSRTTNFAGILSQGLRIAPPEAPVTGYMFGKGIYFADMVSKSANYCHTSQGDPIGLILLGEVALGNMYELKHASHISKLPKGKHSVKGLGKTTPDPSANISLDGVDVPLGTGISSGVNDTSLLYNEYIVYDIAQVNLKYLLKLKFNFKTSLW

SMILES: CN(C)Cc1ccc(-c2nc3cccc4c3n2CCNC4=O)cc1 [AG14361]
- Ki (PARP1): < 5000 pM

SMILES: O=C(c1cc(Cc2n[nH]c(=O)c3ccccc23)ccc1F)N1CCN(C(=O)C2CC2)CC1 [Olaparib, olaparib]
- Blocking of PARPi-FL uptake / target engagement, in words (PARP1/2 [1]): most complete target engagement
- Inhibition of PARylation (PAR signal) (PARylation in LX22 cells): nearly complete inhibition
- Blocking of [18F]PARPi tumor uptake (target engagement) (PARP1/2 [3]; 5 mg/kg i.v.): 59%
- Blocking of [18F]PARPi tumor uptake (target engagement) (PARP1/2 [3]; 15 mg/kg i.v.): 75%
- Blocking of [18F]PARPi tumor uptake (target engagement) (PARP1/2 [3]; 50 mg/kg i.v.): 78%
- 50% blocking dose (PARP1/2 [3]; single-phase decay curve fit, JHU-LX48 PDX tumor): 3.17 mg/kg
- Initial blocking (t = 1 h) (PARP1/2 [4]): 74%
- Initial blocking (t = 1 h) (PARP1/2 [4]; listed as olaparib): 74%
- [18F]PARPi tumor uptake blocked (autoradiography) (PARP1/2 [5]): 96%

SMILES: NC(=O)c1ccc(I)c([N+](=O)[O-])c1 [iniparib]
- Blocking of PARPi-FL uptake / target engagement, in words (PARP1/2 [1]): failed to reduce PARPi-FL uptake

More lines, main results first:

- Retention on PARP1/2 binding sites, in words (PARP1/2 [2]; [8]): faster release kinetics
SMILES: NC(=O)c1cccc2cn(-c3ccc([C@@H]4CCCNC4)cc3)nc12 [Niraparib, niraparib]
- Blocking of PARPi-FL uptake (PARP1/2 [1]): more than 50%
- Effect on JHU-LX22 cell viability, in words (JHU-LX22 cells): much less cell killing

- Retention on PARP1/2 binding sites, in words (PARP1/2 [2]; [8]): longest retention
SMILES: CNCc1ccc(-c2[nH]c3cc(F)cc4c3c2CCNC4=O)cc1 [Rucaparib, rucaparib]
- Blocking of PARPi-FL uptake / target engagement, in words (PARP1/2 [1]): most complete target engagement

- Retention on PARP1/2 binding sites, in words (PARP1/2 [2]): faster release kinetics
SMILES: C[C@]1(c2nc3c(C(N)=O)cccc3[nH]2)CCCN1 [Veliparib, veliparib]
- Blocking of PARPi-FL uptake (PARP1/2 [1]): more than 50%
- Effect on JHU-LX22 cell viability, in words (JHU-LX22 cells): much less cell killing

- IC50 (PARP2): 210 pM
- Muscle uptake (PET) (JHU-LX48 SCLC PDX [6]; 30 min post injection): 0.90 ± 0.06 %ID/g
- Tumor uptake (PET) (JHU-LX48 SCLC PDX [6]; 30 min post injection): 1.34 ± 0.28 %ID/g
- Muscle uptake (PET) (JHU-LX48 SCLC PDX [6]; 60 min post injection): 0.44 ± 0.03 %ID/g
- Tumor uptake (PET) (JHU-LX48 SCLC PDX [6]; 60 min post injection): 0.94 ± 0.04 %ID/g
- Muscle uptake (PET) (JHU-LX48 SCLC PDX [6]; 120 min post injection): 0.12 ± 0.02 %ID/g
- Tumor uptake (PET) (JHU-LX48 SCLC PDX [6]; 120 min post injection): 0.87 ± 0.21 %ID/g
- Maximum tumor uptake (JHU-LX48 SCLC PDX [7]; tumor sizes 50-100 mm^3): 2.62 ± 0.27 %ID/g
- Maximum tumor uptake (JHU-LX48 SCLC PDX [7]; tumor sizes 50-1300 mm^3): 2.85 ± 0.49 %ID/g
- Mean tumor uptake, highest single value (JHU-LX48 SCLC PDX [7]; tumor sizes 50-1300 mm^3): 1.24 %ID/g
- Mean tumor uptake, lowest single value (JHU-LX48 SCLC PDX [7]; tumor sizes 50-1300 mm^3): 0.47 %ID/g
- Mean tumor uptake (JHU-LX48 SCLC PDX [7]; tumor sizes 50-1300 mm^3, 2 h post injection): 0.86 ± 0.22 %ID/g
- Maximum tumor uptake (JHU-LX48 SCLC PDX [7]; tumor sizes 800-1300 mm^3): 3.06 ± 0.61 %ID/g
- Mean tumor uptake (JHU-LX48 SCLC PDX [7]; tumor sizes between 100 and 200 mm^3): 0.97 ± 0.18 %ID/g
- Mean tumor uptake (JHU-LX48 SCLC PDX [7]; tumor sizes between 400 and 800 mm^3): 0.71 ± 0.22 %ID/g
SMILES: O=C(c1ccc([18F])cc1)N1CCN(C(=O)c2cc(Cc3n[nH]c(=O)c4ccccc34)ccc2F)CC1 [[^18F]PARPi]
